# Assay results: ChEMBL document CHEMBL1138543, “Design and synthesis of calpain inhibitory 6-pyridone 2-carboxamide derivatives” (Eur J Med Chem, 2009)
# pIC50: −log10 of the molar value.
# Target: T1, Calpain-1 catalytic subunit (Homo sapiens, UniProt P07384)
# T1 sequence (P07384 whole entry): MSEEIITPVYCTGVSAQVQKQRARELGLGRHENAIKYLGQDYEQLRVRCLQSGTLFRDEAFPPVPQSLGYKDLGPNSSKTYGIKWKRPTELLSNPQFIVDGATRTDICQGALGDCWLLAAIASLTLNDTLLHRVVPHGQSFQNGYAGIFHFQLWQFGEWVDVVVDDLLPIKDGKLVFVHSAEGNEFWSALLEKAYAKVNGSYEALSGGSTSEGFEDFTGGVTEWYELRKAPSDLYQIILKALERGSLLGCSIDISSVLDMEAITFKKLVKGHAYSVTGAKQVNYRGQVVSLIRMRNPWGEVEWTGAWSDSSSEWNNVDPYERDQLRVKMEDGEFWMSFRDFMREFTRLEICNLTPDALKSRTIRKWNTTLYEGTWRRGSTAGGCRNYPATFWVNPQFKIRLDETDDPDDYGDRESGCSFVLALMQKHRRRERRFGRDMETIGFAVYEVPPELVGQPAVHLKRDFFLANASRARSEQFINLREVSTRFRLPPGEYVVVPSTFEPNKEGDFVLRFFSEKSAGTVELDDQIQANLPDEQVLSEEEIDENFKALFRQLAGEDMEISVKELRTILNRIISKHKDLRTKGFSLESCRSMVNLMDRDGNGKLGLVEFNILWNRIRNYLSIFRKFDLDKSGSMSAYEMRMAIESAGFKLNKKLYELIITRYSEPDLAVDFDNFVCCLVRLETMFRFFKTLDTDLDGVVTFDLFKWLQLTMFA
# Assay: Inhibition of human erythrocytes mu-calpain by spectrofluorimeter
row,SMILES,pIC50
1,COc1ccc(CCNC(=O)C(=O)[C@H](Cc2ccccc2)NC(=O)c2[nH]c(=O)ccc2C)cc1,5.21
2,COc1ccc(CNC(=O)C(=O)[C@H](Cc2ccccc2)NC(=O)c2[nH]c(=O)ccc2C)cc1OC,4.45
3,Cc1ccc(=O)[nH]c1C(=O)N[C@@H](Cc1ccccc1)C(=O)C(N)=O,5.55
4,CNC(=O)C(=O)[C@H](Cc1ccccc1)NC(=O)c1[nH]c(=O)ccc1C,4.04
5,COc1ccc(CNC(=O)C(=O)[C@H](Cc2ccccc2)NC(=O)c2[nH]c(=O)ccc2C)cc1,5.21
6,Cc1ccc(=O)[nH]c1C(=O)N[C@@H](Cc1ccccc1)C(=O)C(=O)NCc1ccc(F)cc1,4.66
7,Cc1ccc(=O)[nH]c1C(=O)N[C@@H](Cc1ccccc1)C(=O)C(=O)NCCc1ccccc1,5.13
8,CCNC(=O)C(=O)[C@H](Cc1ccccc1)NC(=O)c1[nH]c(=O)ccc1C,4.40
9,Cc1ccc(=O)[nH]c1C(=O)N[C@@H](Cc1ccccc1)C(=O)C(=O)NC(C)C,< 4.00
10,Cc1ccc(=O)[nH]c1C(=O)N[C@@H](Cc1ccccc1)C(=O)C(=O)NCc1ccccn1,4.07
11,Cc1ccc(=O)[nH]c1C(=O)N[C@@H](Cc1ccccc1)C(=O)C(=O)NCc1ccccc1,4.19
12,Cc1ccc(=O)[nH]c1C(=O)N[C@@H](Cc1ccccc1)C(=O)C(=O)NCCc1ccccn1,4.47
